Test results reported in the NIST ThermoML archive (doi:10.1016/j.jct.2015.11.027).

Settings: Liquid, Vibrating wire viscometry

Cc1ccc(C)cc1 [1,4-dimethylbenzene]
Settings | viscosity [mPa·s]
293.03 K, 15000 kPa | 0.7277
293.03 K, 20000 kPa | 0.7569
293.03 K, 25000 kPa | 0.7883
293.03 K, 30000 kPa | 0.8186
293.04 K, 100 kPa | 0.6444
293.04 K, 1000 kPa | 0.6494
293.04 K, 5000 kPa | 0.672
293.04 K, 10000 kPa | 0.6997
302.86 K, 100 kPa | 0.5762
302.86 K, 1000 kPa | 0.5804
302.87 K, 5000 kPa | 0.5995
302.87 K, 10000 kPa | 0.6244
302.88 K, 15000 kPa | 0.6499
302.88 K, 20000 kPa | 0.6747
302.88 K, 25000 kPa | 0.7023
302.89 K, 30000 kPa | 0.7274
312.76 K, 100 kPa | 0.515
312.76 K, 1000 kPa | 0.5186
312.76 K, 15000 kPa | 0.5806
312.76 K, 20000 kPa | 0.6027
312.76 K, 25000 kPa | 0.6263
312.76 K, 30000 kPa | 0.6494
312.77 K, 5000 kPa | 0.5356
312.77 K, 10000 kPa | 0.5575
322.62 K, 100 kPa | 0.4653
322.63 K, 1000 kPa | 0.4689
322.64 K, 5000 kPa | 0.4833
322.64 K, 10000 kPa | 0.5038
322.64 K, 15000 kPa | 0.524
322.64 K, 20000 kPa | 0.5442
322.64 K, 25000 kPa | 0.5653
322.65 K, 30000 kPa | 0.5861
332.57 K, 30000 kPa | 0.5304
332.58 K, 100 kPa | 0.4206
332.58 K, 1000 kPa | 0.4237
332.58 K, 5000 kPa | 0.4383
332.58 K, 10000 kPa | 0.4564
332.58 K, 15000 kPa | 0.4745
332.58 K, 20000 kPa | 0.493
332.58 K, 25000 kPa | 0.5109
342.27 K, 100 kPa | 0.3815
342.27 K, 1000 kPa | 0.3842
342.28 K, 5000 kPa | 0.3977
342.28 K, 10000 kPa | 0.4144
342.28 K, 20000 kPa | 0.4482
342.29 K, 15000 kPa | 0.4314
342.29 K, 25000 kPa | 0.4649
342.29 K, 30000 kPa | 0.4833
352.2 K, 5000 kPa | 0.3634
352.2 K, 10000 kPa | 0.3791
352.2 K, 15000 kPa | 0.3945
352.2 K, 20000 kPa | 0.4111
352.2 K, 25000 kPa | 0.4263
352.2 K, 30000 kPa | 0.4423
352.21 K, 100 kPa | 0.3483
352.21 K, 1000 kPa | 0.3507
362.73 K, 100 kPa | 0.3194
362.74 K, 1000 kPa | 0.3217
362.75 K, 5000 kPa | 0.3331
362.76 K, 10000 kPa | 0.3467
362.76 K, 15000 kPa | 0.3616
362.77 K, 20000 kPa | 0.3756
362.81 K, 25000 kPa | 0.3915
362.82 K, 30000 kPa | 0.405
372.69 K, 20000 kPa | 0.348
372.69 K, 25000 kPa | 0.3614
372.69 K, 30000 kPa | 0.3752
372.7 K, 10000 kPa | 0.3203
372.7 K, 15000 kPa | 0.3341
372.71 K, 100 kPa | 0.2936
372.71 K, 1000 kPa | 0.296
372.71 K, 5000 kPa | 0.3061

Cc1cccc(C)c1 [1,3-dimethylbenzene]
Settings | viscosity [mPa·s]
273.54 K, 10000 kPa | 0.8601
273.54 K, 25000 kPa | 0.9681
273.54 K, 30000 kPa | 1.008
273.55 K, 1000 kPa | 0.8029
273.55 K, 5000 kPa | 0.8274
273.55 K, 15000 kPa | 0.8952
273.55 K, 20000 kPa | 0.9293
273.56 K, 100 kPa | 0.7948
283.24 K, 100 kPa | 0.7
283.24 K, 10000 kPa | 0.7574
283.25 K, 1000 kPa | 0.707
283.25 K, 5000 kPa | 0.7291
283.25 K, 15000 kPa | 0.7883
283.25 K, 20000 kPa | 0.8196
283.25 K, 25000 kPa | 0.853
283.25 K, 30000 kPa | 0.8858
293.06 K, 1000 kPa | 0.6255
293.06 K, 20000 kPa | 0.7224
293.06 K, 25000 kPa | 0.7497
293.07 K, 100 kPa | 0.6215
293.07 K, 5000 kPa | 0.644
293.07 K, 10000 kPa | 0.6692
293.07 K, 15000 kPa | 0.6957
293.07 K, 30000 kPa | 0.7757
302.87 K, 30000 kPa | 0.6903
302.88 K, 5000 kPa | 0.5751
302.88 K, 25000 kPa | 0.6673
302.89 K, 15000 kPa | 0.6204
302.9 K, 100 kPa | 0.5542
302.9 K, 1000 kPa | 0.5571
302.9 K, 10000 kPa | 0.598
302.9 K, 20000 kPa | 0.645
313.29 K, 1000 kPa | 0.4982
313.3 K, 100 kPa | 0.4952
313.3 K, 5000 kPa | 0.5142
313.3 K, 10000 kPa | 0.5341
313.31 K, 15000 kPa | 0.5548
313.31 K, 20000 kPa | 0.5757
313.31 K, 25000 kPa | 0.5968
313.31 K, 30000 kPa | 0.618
323 K, 10000 kPa | 0.4847
323.01 K, 100 kPa | 0.4499
323.01 K, 1000 kPa | 0.4531
323.01 K, 5000 kPa | 0.467
323.02 K, 15000 kPa | 0.5032
323.02 K, 20000 kPa | 0.522
323.02 K, 25000 kPa | 0.5411
323.02 K, 30000 kPa | 0.5599
333.1 K, 100 kPa | 0.4087
333.11 K, 1000 kPa | 0.411
333.11 K, 5000 kPa | 0.4237
333.11 K, 10000 kPa | 0.4414
333.11 K, 15000 kPa | 0.4585
333.11 K, 20000 kPa | 0.4756
333.12 K, 25000 kPa | 0.4931
333.12 K, 30000 kPa | 0.5101
342.97 K, 20000 kPa | 0.4363
342.97 K, 25000 kPa | 0.4516
342.97 K, 30000 kPa | 0.4678
342.98 K, 100 kPa | 0.3731
342.98 K, 1000 kPa | 0.3761
342.98 K, 5000 kPa | 0.3882
342.98 K, 10000 kPa | 0.4036
342.98 K, 15000 kPa | 0.4205
352.88 K, 20000 kPa | 0.4014
352.88 K, 25000 kPa | 0.4162
352.88 K, 30000 kPa | 0.431
352.89 K, 100 kPa | 0.3436
352.89 K, 1000 kPa | 0.346
352.89 K, 5000 kPa | 0.3581
352.89 K, 10000 kPa | 0.3728
352.89 K, 15000 kPa | 0.3867
362.69 K, 100 kPa | 0.3175
362.7 K, 1000 kPa | 0.32
362.7 K, 5000 kPa | 0.3307
362.7 K, 10000 kPa | 0.3452
362.71 K, 15000 kPa | 0.3587
362.71 K, 20000 kPa | 0.3726
362.71 K, 25000 kPa | 0.3859
362.71 K, 30000 kPa | 0.3995
372.5 K, 100 kPa | 0.2936
372.5 K, 1000 kPa | 0.2964
372.51 K, 5000 kPa | 0.307
372.51 K, 10000 kPa | 0.3199
372.51 K, 15000 kPa | 0.3331
372.51 K, 20000 kPa | 0.3463
372.51 K, 25000 kPa | 0.3587
372.51 K, 30000 kPa | 0.3715
